Like-named read-outs stand apart in the source and are kept apart here. Starred links: 1 amine or outer side, 2 acyl side, 3 side chain; linkers in the order of their positions; H or OH if unused. Non-standard residues stand in square brackets, D forms with d. Residues, ends and D or L forms follow the SMILES beside them. Groups on a side chain read outwards from the residue. *: point of attachment. C18 diacid = O=C(O)CCCCCCCCCCCCCCCCC(=O)*; γGlu = O=C(O)[C@H](CCC(=O)[*:2])N[*:1]; εLys = N[C@@H](CCCCN[*:1])C(=O)[*:2]; Aib = CC(C)(N)C(=O)O
Columns and labels:
[1] = Pharmacokinetic study in dogs, oral dosing of tablet compositions with SNAC; assay type: in vivo, Beagle dogs; details: for Tmax / half-life: male
Outline: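 Male beagle dogs (9-17 kg), fasted, received a single oral tablet with 100-300 mg SNAC and 3-4 mg test substance, groups of 6-8.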

human GLP-1 receptor = molecular target: T1, human GLP-1 receptor (Homo sapiens, UniProt P43220); test: In vitro functional potency, CRE luciferase reporter gene assay, whole BHK cells expressing hGLP-1R; assay type: cell-based; details: BHK CRE luc2P hGLP-1R cells
T1 construct: expressed in transfected cells; host or cells: BHK (parent line BHKTS13), clone BHK CRE luc2P hGLP-1R
T1 sequence (P43220 24-463): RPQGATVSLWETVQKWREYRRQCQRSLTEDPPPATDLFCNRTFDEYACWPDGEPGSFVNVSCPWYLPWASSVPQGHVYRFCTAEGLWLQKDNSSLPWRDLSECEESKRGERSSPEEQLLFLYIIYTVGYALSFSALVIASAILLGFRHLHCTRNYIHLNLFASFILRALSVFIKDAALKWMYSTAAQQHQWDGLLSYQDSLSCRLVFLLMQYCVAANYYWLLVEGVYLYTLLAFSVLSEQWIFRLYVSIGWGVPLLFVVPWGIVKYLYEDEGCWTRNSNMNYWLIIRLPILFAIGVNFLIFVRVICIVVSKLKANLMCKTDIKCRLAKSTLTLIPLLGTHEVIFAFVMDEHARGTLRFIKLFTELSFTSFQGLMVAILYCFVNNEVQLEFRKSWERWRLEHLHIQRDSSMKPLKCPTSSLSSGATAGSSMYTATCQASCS

human GIP receptor = molecular target: T2, human GIP receptor (Homo sapiens, UniProt P48546); test: In vitro functional potency, CRE luciferase reporter gene assay, whole BHK cells expressing hGIPR; assay type: cell-based; details: BHK CRE luc2P hGIPR cells
T2 construct: expressed in transfected cells; host or cells: BHK (parent line BHKTS13), clone BHK CRE luc2P hGIPR
T2 sequence (P48546 22-466): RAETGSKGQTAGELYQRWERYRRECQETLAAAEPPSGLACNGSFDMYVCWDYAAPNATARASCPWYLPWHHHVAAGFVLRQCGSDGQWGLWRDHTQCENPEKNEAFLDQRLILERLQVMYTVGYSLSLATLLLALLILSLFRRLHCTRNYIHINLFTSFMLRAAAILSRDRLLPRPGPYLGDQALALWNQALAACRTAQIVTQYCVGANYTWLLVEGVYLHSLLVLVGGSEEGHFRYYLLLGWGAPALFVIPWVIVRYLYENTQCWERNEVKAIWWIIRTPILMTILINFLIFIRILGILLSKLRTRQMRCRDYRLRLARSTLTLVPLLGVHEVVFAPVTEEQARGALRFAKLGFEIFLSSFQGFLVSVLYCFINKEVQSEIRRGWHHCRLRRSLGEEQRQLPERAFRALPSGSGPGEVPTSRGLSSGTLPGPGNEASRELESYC

[2] = in vivo; cited from earlier work
[3] = hGLP-1R, CRE Luc 1% HSA EC50, 1% HSA
[4] = hGIPR, CRE Luc 1% HSA EC50, 1% HSA

CC[C@H](C)[C@H](NC(=O)[C@H](Cc1ccccc1)NC(=O)[C@H](CCC(=O)O)NC(=O)[C@H](CCCNC(=N)N)NC(=O)[C@H](C)NC(=O)[C@H](C)NC(=O)[C@H](CCC(N)=O)NC(=O)[C@H](CCCCNC(=O)[C@@H](N)CCCCNC(=O)[C@@H](N)CCCCNC(=O)CC[C@H](NC(=O)CCCCCCCCCCCCCCCCC(=O)O)C(=O)O)NC(=O)[C@H](CCC(=O)O)NC(=O)[C@H](CC(C)C)NC(=O)[C@H](Cc1ccc(O)cc1)NC(=O)[C@@H](NC(=O)[C@H](CO)NC(=O)[C@H](Cc1ccc(O)cc1)NC(=O)[C@H](CC(=O)O)NC(=O)[C@H](CO)NC(=O)[C@@H](NC(=O)[C@H](Cc1ccccc1)NC(=O)[C@@H](NC(=O)CNC(=O)[C@H](CCC(=O)O)NC(=O)C(C)(C)NC(=O)[C@@H](N)Cc1ccc(O)cc1)[C@@H](C)O)[C@@H](C)O)[C@@H](C)CC)C(=O)N[C@@H](CC(N)=O)C(=O)N[C@@H](Cc1c[nH]c2ccccc12)C(=O)N[C@@H](CC(C)C)C(=O)N[C@@H](CC(C)C)C(=O)N[C@@H](C)C(=O)NCC(=O)NCC(=O)N1CCC[C@H]1C(=O)N[C@@H](CO)C(=O)N[C@@H](CO)C(=O)NCC(=O)N[C@@H](C)C(=O)N1CCC[C@H]1C(=O)N1CCC[C@H]1C(=O)N1CCC[C@H]1C(=O)N[C@@H](CO)C(=O)O [Compound No. 11] (H-Y[Aib]EGTFTSDYSIYLEK([εLys-εLys-γGlu-C18 diacid])QAAREFINWLLAGGPSSGAPPPS-OH; N-terminus assumed)
AUC/Dose ([1]; dog, in vivo, po): 7.1 kg·h/L
Tmax ([1]; beagle, dog, in vivo, po, Tmax): 1.4 h
half-life ([1]; beagle, dog, in vivo, po, t1/2): 34 h
EC50 (human GLP-1 receptor; 0% HSA, read-out: hGLP-1R, CRE Luc 0% HSA EC50): 0.0033 nM
EC50 (human GLP-1 receptor; [3]): 0.132 nM
EC50 (human GIP receptor; 0% HSA, read-out: hGIPR, CRE Luc 0% HSA EC50): 0.0099 nM
EC50 (human GIP receptor; [4]): 0.45 nM

CC[C@H](C)[C@H](NC(=O)[C@H](Cc1ccccc1)NC(=O)[C@H](CCC(=O)O)NC(=O)[C@H](CCCNC(=N)N)NC(=O)[C@H](C)NC(=O)[C@H](C)NC(=O)[C@H](CCC(N)=O)NC(=O)[C@H](CCCCNC(=O)[C@@H](N)CCCCNC(=O)[C@@H](N)CCCCNC(=O)CC[C@H](NC(=O)CCCCCCCCCCCCCCCCC(=O)O)C(=O)O)NC(=O)[C@H](CCC(=O)O)NC(=O)[C@H](CC(C)C)NC(=O)[C@H](Cc1ccc(O)cc1)NC(=O)[C@@H](NC(=O)[C@H](CO)NC(=O)[C@H](Cc1ccc(O)cc1)NC(=O)[C@H](CC(=O)O)NC(=O)[C@H](CO)NC(=O)[C@@H](NC(=O)[C@H](Cc1ccccc1)NC(=O)[C@@H](NC(=O)CNC(=O)[C@H](CCC(=O)O)NC(=O)C(C)(C)NC(=O)[C@@H](N)Cc1ccc(O)cc1)[C@@H](C)O)[C@@H](C)O)[C@@H](C)CC)C(=O)N[C@@H](CCC(=O)O)C(=O)N[C@@H](Cc1c[nH]c2ccccc12)C(=O)N[C@@H](CC(C)C)C(=O)N[C@@H](CC(C)C)C(=O)N[C@@H](CCCNC(=N)N)C(=O)NCC(=O)NCC(=O)N1CCC[C@H]1C(=O)N[C@@H](CCC(=O)O)C(=O)N[C@@H](CO)C(=O)NCC(=O)N[C@@H](C)C(=O)N1CCC[C@H]1C(=O)N1CCC[C@H]1C(=O)N1CCC[C@H]1C(=O)N[C@@H](CO)C(=O)O [Compound No. 13] (H-Y[Aib]EGTFTSDYSIYLEK([εLys-εLys-γGlu-C18 diacid])QAAREFIEWLLRGGPESGAPPPS-OH)
half-life ([1]; dog, in vivo, oral tablet, SNAC 100 mg, test substance 3 mg, Beagle dogs, harmonic mean, read-out: t1/2 (converted)): 60 h
Tmax ([1]; dog, in vivo, oral tablet, SNAC 100 mg, test substance 3 mg, Beagle dogs, median, read-out: Tmax): 1.5 h
AUC/Dose ([1]; oral tablet, SNAC 100 mg, test substance 3 mg, Beagle dogs, arithmetic mean): 14.8 kg·h/L
EC50 (human GLP-1 receptor; hGLP-1R, CRE Luc 0% HSA EC50, 0% HSA): 0.0074 nM
EC50 (human GLP-1 receptor; [3]): 0.204 nM
EC50 (human GIP receptor; hGIPR, CRE Luc 0% HSA EC50, 0% HSA): 0.0139 nM
EC50 (human GIP receptor; [4]): 0.257 nM

hGLP-1: human glucagon-like peptide 1, native hormone whose half-life in man is cited from Meier et al.
half-life measured in man [2]: 2 to 4 min

— patent publication US20230120597A1, “CO-AGONISTS AT GLP-1 AND GIP RECEPTORS SUITABLE FOR ORAL DELIVERY” (Novo Nordisk A/S, priority 2020, published 2023)
